Measurements: patent publication US20110245349A1, “BENZYL ALCOHOL MIXTURE FOR TREATING PREMATURE EJACULATION” (PANAXIA LTD., priority 2010, published 2011)

Test system: sexual desensitization of male subjects
Experiment: Desensitization effect scored by male subjects after rubbing the mixture on the genital organs and manual stimulation
Format: in vivo, human
Conditions: for Mean desensitization effect: scale of 1-10, mean of 5 subjects
Experimental: In a trial which was conducted on 5 healthy, sexually active male subjects the following formulations were tested: Benzyl alcohol in concentrations: 1%, 3%, 5%, 7% and 10%. Each of the concentrations was tested in the following vehicles: aqueous alcoholic solution, gel, ointment and cream. For each formulation the participants were requested to rub the mixture on their genital organs until complete skin absorption and then wait for the full effect for 5 minutes. After the waiting period the participants were requested to perform manual stimulation of their genital organs and describe the desensitization effect of the mixture in a scale of 1-10.
In another trial, menthol was added to the mixture and the same procedure that was described earlier was applied to assess the effect of menthol addition.

Q: For `OCc1ccccc1` [Benzyl alcohol], which “Desensitization effect (in words)” value (each of the benzyl alcohol concentrations tested (1-10%)) is on record?
A: effective as a desensitizer

Q: What about the “Optimal concentration of benzyl alcohol” value (found in the applicant's tests) of the same compound?
A: 5%

Q: What about the Mean desensitization effect (aqueous alcoholic solution (1:1 water ethanol mixture), benzyl alcohol 1%, 5 min wait) of the same compound?
A: 3.2

Q: And the Mean desensitization effect (aqueous alcoholic solution (1:1 water ethanol mixture), benzyl alcohol 3%)?
A: 4.6

Q: And the Mean desensitization effect (aqueous alcoholic solution (1:1 water ethanol mixture), benzyl alcohol 5%)?
A: 6.2

Q: What about the Mean desensitization effect (aqueous alcoholic solution (1:1 water ethanol mixture), benzyl alcohol 7%) of the same compound?
A: 7.6

Q: And the Mean desensitization effect (aqueous alcoholic solution (1:1 water ethanol mixture), benzyl alcohol 10%)?
A: 8.0

Q: And the Mean desensitization effect (aqueous gel (1% hydroxyethylcellulose gel), benzyl alcohol 1%)?
A: 2.8

Q: And the Mean desensitization effect (aqueous gel (1% hydroxyethylcellulose gel), benzyl alcohol 3%)?
A: 4.2

Q: And the Mean desensitization effect (aqueous gel (1% hydroxyethylcellulose gel), benzyl alcohol 5%)?
A: 5.6

Q: What about the Mean desensitization effect (aqueous gel (1% hydroxyethylcellulose gel), benzyl alcohol 7%) of the same compound?
A: 6.6

Q: And the Mean desensitization effect (aqueous gel (1% hydroxyethylcellulose gel), benzyl alcohol 10%)?
A: 7.4

Q: And the Mean desensitization effect (cream, benzyl alcohol 1%)?
A: 2.4

Q: And the Mean desensitization effect (cream, benzyl alcohol 3%)?
A: 3.6

Q: What about the Mean desensitization effect (cream, benzyl alcohol 5%) of the same compound?
A: 5.2

Q: What about the Mean desensitization effect (cream, benzyl alcohol 7%) of the same compound?
A: 6.2

Q: What about the Mean desensitization effect (cream, benzyl alcohol 10%) of the same compound?
A: 6.8

Q: And the Mean desensitization effect (ointment, benzyl alcohol 1%)?
A: 2.0

Q: What about the Mean desensitization effect (ointment, benzyl alcohol 3%) of the same compound?
A: 3.2

Q: And the Mean desensitization effect (ointment, benzyl alcohol 5%)?
A: 4.8

Q: And the Mean desensitization effect (ointment, benzyl alcohol 7%)?
A: 5.8

Q: And the Mean desensitization effect (ointment, benzyl alcohol 10%)?
A: 6.2

Q: For `CC1CCC(C(C)C)C(O)C1` (stereo not drawn) [menthol, Menthol], which “Desensitization effect (in words)” value (menthol combined with benzyl alcohol gel, compared with the same concentration of benzyl alcohol alone) is on record?
A: dramatic effect

Q: What about the “Desensitization effect (in words)” value (sole use of menthol in 1% Hydroxyethylcellulose gel) of the same compound?
A: did not create a substantial desensitization effect
